According to the NIST ThermoML archive (doi:10.1021/je100940w):
Numbers after ± are expanded uncertainties.

Tests used:
[1] = refractive index (Na D-line) (dimensionless); settings: 298.15 K; 101.33 kPa; Liquid; Standard Abbe refractometry
[2] = 298.15 K; 101.33 kPa; Liquid; Vibrating tube method

SMILES	refractive index [1]	mass density [2]
CC(=O)CC(C)C [4-methylpentan-2-one]	1.3936 ± 0.0005	795.94 ± 0.14 kg/m3
CCC(C)O (stereo not given) [butan-2-ol]	1.3949 ± 0.0005	802.35 ± 0.24 kg/m3
O [water]	1.3332 ± 0.0005	–
